# Measured values as given in ChEMBL document CHEMBL3885881, “DrugMatrix”.
# Species: Rattus norvegicus
# Experiment: DrugMatrix - Regimen: Daily Repeat
# Format: toxicity, organism-based, Sprague-Dawley
# Design: regimen Daily Repeat, gender Male, age 6-8 weeks
# Settings: in vivo, iv, vehicle 100 % SALINE; for ABSOLUTE BASOPHIL / ABSOLUTE EOSINOPHIL / ABSOLUTE LYMPHOCYTE / ABSOLUTE MONOCYTE / ABSOLUTE SEGMENTED NEUTROPHIL / BASOPHIL / EOSINOPHIL / ERYTHROCYTE COUNT / HEMATOCRIT / HEMOGLOBIN / LEUKOCYTE COUNT / LYMPHOCYTE / MEAN CORPUSCULAR HEMOGLOBIN / MEAN CORPUSCULAR HEMOGLOBIN CONCENTRATION / MEAN CORPUSCULAR VOLUME / MONOCYTE / NEUTROPHIL / NUCLEATED RED BLOOD CELLS / PLATELET COUNT: tissue Blood; for ALANINE AMINOTRANSFERASE / ALBUMIN / ALKALINE PHOSPHATASE / ASPARTATE AMINOTRANSFERASE / BLOOD UREA NITROGEN / CARBON DIOXIDE / CHLORIDE / CHOLESTEROL / CREATINE PHOSPHOKINASE / CREATININE / GLUCOSE / LACTATE DEHYDROGENASE / LIPASE / PHOSPHORUS / POTASSIUM / SODIUM / TOTAL BILIRUBIN / TOTAL PROTEIN / URIC ACID: tissue Plasma
# [1] = 0.4 mg/kg, 72 h, dose level Low, time 3 day
# [2] = 0.4 mg/kg, 120 h, dose level Low, time 5 day
# [3] = 4 mg/kg, 72 h, dose level High, time 3 day
# [4] = 4 mg/kg, 120 h, dose level High, time 5 day
compound,measurement,setting,value
CCCCN1CCCC[C@H]1C(=O)Nc1c(C)cccc1C [LEVOBUPIVACAINE],ABSOLUTE BASOPHIL,[1],0 CELLS/uL
same,ABSOLUTE EOSINOPHIL,[1],254.67 CELLS/uL
same,ABSOLUTE LYMPHOCYTE,[1],15126.67 CELLS/uL
same,ABSOLUTE MONOCYTE,[1],468.33 CELLS/uL
same,ABSOLUTE SEGMENTED NEUTROPHIL,[1],1383.67 CELLS/uL
same,BASOPHIL,[1],0%
same,EOSINOPHIL,[1],1.33%
same,ERYTHROCYTE COUNT,[1],5.99 x10E6/uL
same,HEMATOCRIT,[1],37.7%
same,HEMOGLOBIN,[1],13.83 G/DL
same,LEUKOCYTE COUNT,[1],17.23 x10E3/uL
same,LYMPHOCYTE,[1],88.33%
same,MEAN CORPUSCULAR HEMOGLOBIN,[1],23.17 pg
same,MEAN CORPUSCULAR HEMOGLOBIN CONCENTRATION,[1],36.7 G/DL
same,MEAN CORPUSCULAR VOLUME,[1],63.07 fL
same,MONOCYTE,[1],2.67%
same,NEUTROPHIL,[1],7.67%
same,NUCLEATED RED BLOOD CELLS,[1],0 /100WBC
same,PLATELET COUNT,[1],1404.67 x10E3/uL
same,ALANINE AMINOTRANSFERASE,[1],48.33 u/L
same,ALBUMIN,[1],4.3 G/DL
same,ALKALINE PHOSPHATASE,[1],344.33 u/L
same,ASPARTATE AMINOTRANSFERASE,[1],82.67 u/L
same,BLOOD UREA NITROGEN,[1],17.33 mg/dL
same,CARBON DIOXIDE,[1],22 mmol/L
same,CHLORIDE,[1],106 MEQ/L
same,CHOLESTEROL,[1],74 mg/dL
same,CREATINE PHOSPHOKINASE,[1],243 u/L
same,CREATININE,[1],0.23 mg/dL
same,GLUCOSE,[1],167.67 mg/dL
same,LACTATE DEHYDROGENASE,[1],317 u/L
same,LIPASE,[1],9 u/L
same,PHOSPHORUS,[1],13.87 mg/dL
same,POTASSIUM,[1],6.74 MEQ/L
same,SODIUM,[1],148.9 MEQ/L
same,TOTAL BILIRUBIN,[1],0.2 mg/dL
same,TOTAL PROTEIN,[1],6.3 G/DL
same,URIC ACID,[1],2.5 mg/dL
same,ABSOLUTE BASOPHIL,[2],0 CELLS/uL
same,ABSOLUTE EOSINOPHIL,[2],140.33 CELLS/uL
same,ABSOLUTE LYMPHOCYTE,[2],13101.33 CELLS/uL
same,ABSOLUTE MONOCYTE,[2],294.33 CELLS/uL
same,ABSOLUTE SEGMENTED NEUTROPHIL,[2],1864 CELLS/uL
same,BASOPHIL,[2],0%
same,EOSINOPHIL,[2],1%
same,ERYTHROCYTE COUNT,[2],5.93 x10E6/uL
same,HEMATOCRIT,[2],37%
same,HEMOGLOBIN,[2],14 G/DL
same,LEUKOCYTE COUNT,[2],15.4 x10E3/uL
same,LYMPHOCYTE,[2],85.33%
same,MEAN CORPUSCULAR HEMOGLOBIN,[2],23.6 pg
same,MEAN CORPUSCULAR HEMOGLOBIN CONCENTRATION,[2],37.83 G/DL
same,MEAN CORPUSCULAR VOLUME,[2],62.47 fL
same,MONOCYTE,[2],2%
same,NEUTROPHIL,[2],11.67%
same,NUCLEATED RED BLOOD CELLS,[2],0.33 /100WBC
same,PLATELET COUNT,[2],1119 x10E3/uL
same,ALANINE AMINOTRANSFERASE,[2],67.67 u/L
same,ALBUMIN,[2],4.13 G/DL
same,ALKALINE PHOSPHATASE,[2],394 u/L
same,ASPARTATE AMINOTRANSFERASE,[2],122.67 u/L
same,BLOOD UREA NITROGEN,[2],20 mg/dL
same,CARBON DIOXIDE,[2],24.67 mmol/L
same,CHLORIDE,[2],107.33 MEQ/L
same,CHOLESTEROL,[2],54.33 mg/dL
same,CREATINE PHOSPHOKINASE,[2],430.33 u/L
same,CREATININE,[2],0.2 mg/dL
same,GLUCOSE,[2],154.33 mg/dL
same,LACTATE DEHYDROGENASE,[2],798.67 u/L
same,LIPASE,[2],8.67 u/L
same,PHOSPHORUS,[2],13.03 mg/dL
same,POTASSIUM,[2],5.58 MEQ/L
same,SODIUM,[2],148.47 MEQ/L
same,TOTAL BILIRUBIN,[2],0.1 mg/dL
same,TOTAL PROTEIN,[2],6.2 G/DL
same,URIC ACID,[2],1.57 mg/dL
same,ABSOLUTE BASOPHIL,[3],0 CELLS/uL
same,ABSOLUTE EOSINOPHIL,[3],0 CELLS/uL
same,ABSOLUTE LYMPHOCYTE,[3],11600.33 CELLS/uL
same,ABSOLUTE MONOCYTE,[3],405 CELLS/uL
same,ABSOLUTE SEGMENTED NEUTROPHIL,[3],1828 CELLS/uL
same,BASOPHIL,[3],0%
same,EOSINOPHIL,[3],0%
same,ERYTHROCYTE COUNT,[3],5.58 x10E6/uL
same,HEMATOCRIT,[3],35.27%
same,HEMOGLOBIN,[3],13.37 G/DL
same,LEUKOCYTE COUNT,[3],13.83 x10E3/uL
same,LYMPHOCYTE,[3],83.67%
same,MEAN CORPUSCULAR HEMOGLOBIN,[3],23.93 pg
same,MEAN CORPUSCULAR HEMOGLOBIN CONCENTRATION,[3],37.9 G/DL
same,MEAN CORPUSCULAR VOLUME,[3],63.2 fL
same,MONOCYTE,[3],3%
same,NEUTROPHIL,[3],13.33%
same,NUCLEATED RED BLOOD CELLS,[3],0.33 /100WBC
same,PLATELET COUNT,[3],1307 x10E3/uL
same,ALANINE AMINOTRANSFERASE,[3],41.33 u/L
same,ALBUMIN,[3],4.27 G/DL
same,ALKALINE PHOSPHATASE,[3],430.67 u/L
same,ASPARTATE AMINOTRANSFERASE,[3],83.33 u/L
same,BLOOD UREA NITROGEN,[3],15.67 mg/dL
same,CARBON DIOXIDE,[3],24.67 mmol/L
same,CHLORIDE,[3],105.67 MEQ/L
same,CHOLESTEROL,[3],62 mg/dL
same,CREATINE PHOSPHOKINASE,[3],275.67 u/L
same,CREATININE,[3],0.23 mg/dL
same,GLUCOSE,[3],152 mg/dL
same,LACTATE DEHYDROGENASE,[3],383 u/L
same,LIPASE,[3],8.67 u/L
same,PHOSPHORUS,[3],13.3 mg/dL
same,POTASSIUM,[3],6.04 MEQ/L
same,SODIUM,[3],146.8 MEQ/L
same,TOTAL BILIRUBIN,[3],0.2 mg/dL
same,TOTAL PROTEIN,[3],5.77 G/DL
same,URIC ACID,[3],1.43 mg/dL
same,ABSOLUTE BASOPHIL,[4],0 CELLS/uL
same,ABSOLUTE EOSINOPHIL,[4],0 CELLS/uL
same,ABSOLUTE LYMPHOCYTE,[4],14035 CELLS/uL
same,ABSOLUTE MONOCYTE,[4],328 CELLS/uL
same,ABSOLUTE SEGMENTED NEUTROPHIL,[4],2037 CELLS/uL
same,BASOPHIL,[4],0%
same,EOSINOPHIL,[4],0%
same,ERYTHROCYTE COUNT,[4],5.6 x10E6/uL
same,HEMATOCRIT,[4],34.2%
same,HEMOGLOBIN,[4],13.05 G/DL
same,LEUKOCYTE COUNT,[4],16.4 x10E3/uL
same,LYMPHOCYTE,[4],85.5%
same,MEAN CORPUSCULAR HEMOGLOBIN,[4],23.3 pg
same,MEAN CORPUSCULAR HEMOGLOBIN CONCENTRATION,[4],38.15 G/DL
same,MEAN CORPUSCULAR VOLUME,[4],61.1 fL
same,MONOCYTE,[4],2%
same,NEUTROPHIL,[4],12.5%
same,NUCLEATED RED BLOOD CELLS,[4],0.5 /100WBC
same,PLATELET COUNT,[4],1167 x10E3/uL
same,ALANINE AMINOTRANSFERASE,[4],38 u/L
same,ALBUMIN,[4],4.35 G/DL
same,ALKALINE PHOSPHATASE,[4],311 u/L
same,ASPARTATE AMINOTRANSFERASE,[4],72.5 u/L
same,BLOOD UREA NITROGEN,[4],18 mg/dL
same,CARBON DIOXIDE,[4],26.5 mmol/L
same,CHLORIDE,[4],103 MEQ/L
same,CHOLESTEROL,[4],57.5 mg/dL
same,CREATINE PHOSPHOKINASE,[4],325.5 u/L
same,CREATININE,[4],0.17 mg/dL
same,GLUCOSE,[4],150.5 mg/dL
same,LACTATE DEHYDROGENASE,[4],321.5 u/L
same,LIPASE,[4],8 u/L
same,PHOSPHORUS,[4],13.4 mg/dL
same,POTASSIUM,[4],6.04 MEQ/L
same,SODIUM,[4],146.65 MEQ/L
same,TOTAL BILIRUBIN,[4],0.1 mg/dL
same,TOTAL PROTEIN,[4],6.05 G/DL
same,URIC ACID,[4],1.5 mg/dL
